One experiment concerns the target T1, Aurora-2 (Homo sapiens, UniProt O14965).
T1 sequence (O14965 1-403): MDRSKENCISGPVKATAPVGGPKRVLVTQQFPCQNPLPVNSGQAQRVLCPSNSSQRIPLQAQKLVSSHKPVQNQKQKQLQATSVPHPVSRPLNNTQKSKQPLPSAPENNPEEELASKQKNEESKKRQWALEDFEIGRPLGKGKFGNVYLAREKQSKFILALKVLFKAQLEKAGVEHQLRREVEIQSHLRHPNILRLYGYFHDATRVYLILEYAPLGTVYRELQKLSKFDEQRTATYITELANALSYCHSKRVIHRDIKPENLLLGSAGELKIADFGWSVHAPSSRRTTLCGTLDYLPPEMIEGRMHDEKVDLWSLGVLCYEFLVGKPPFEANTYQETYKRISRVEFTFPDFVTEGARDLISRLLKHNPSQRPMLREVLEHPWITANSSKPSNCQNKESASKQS
Description: Inhibition assay of Aurora-2 activity (SPA). The experiment is classed as biochemical. As for the experimental part: The inhibiting activity and the potency of selected compounds is determined through a method of assay based on the use of the SPA technology (Amersham Pharmacia Biotech).
The assay consists of the transfer of radioactivity labelled phosphate moiety by the kinase to a biotinylated substrate. The resulting 33P-labelled biotinylated product is allowed to bind to streptavidin-coated SPA beads (biotin capacity 130 pmol/mg), and light emitted was measured in a scintillation counter.
Inhibition Assay of Aurora-2 Activity
Kinase reaction: 8 μM biotinylated peptide (4 repeats of LRRWSLG), 10 μM ATP (0.5 uCi P^33γ-ATP), 7.5 ng Aurora 2, inhibitor in a final volume of 30 μl buffer (HEPES 50 mM pH 7.0, MgCl2 10 mM, 1 mM DTT, 0.2 mg/mL BSA, 3 μM orthovanadate) were added to each well of a 96 U bottom well plate. After 60 minutes at room temperature incubation, reaction was stopped and biotinylated peptide captured by adding 100 μl of bead suspension.
Stratification: 100 μl of CsCl 5 M were added to each well and let stand 4 hour before radioactivity was counted in the Top-Count instrument.
IC50 determination: inhibitors were tested at different concentrations ranging from 0.0015 to 10 μM. […]

Experiment [1] deals with human colon cancer cell line HCT-116. Kind of experiment: In vitro cell proliferation assay. The experiment is classed as cell-based. The following applies: HCT-116, 72 hours of treatment, read-out: Cell Antiproliferation IC50. As for the experimental part: The compounds of the invention were further tested, in vitro to assess the anti-proliferative effect onto cell cultures.
In Vitro Cell Proliferation Assay
The human colon cancer cell line HCT-116 was seeded at 5000 cells/cm^2 in 24 wells plate (Costar) using F12 medium (Gibco) supplemented with 10% FCS (EuroClone, Italy) 2 mM L-glutamine and 1% penicillin/streptomycin and maintained at 37° C., 5% CO2 and 96% relative humidity. The following day, plates were treated in duplicates with 5 ul of an appropriate dilution of compounds starting from a 10 mM stock in DMSO. Two untreated control wells were included in each plate. After 72 hours of treatment, medium was withdrawn and cells detached from each well using 0.5 mL of 0.05% (w/v) Trypsin, 0.02% (w/v) EDTA (Gibco) Samples were diluted with 9.5 mL of Isoton (Coulter) and counted using a Multisizer 3 cell counter (Beckman Coulter). Data were evaluated as percent of the control wells, % of CTR=(Treated−Blank)/(Control−Blank). IC50 values were calculated by LSW/Data Analysis using Microsoft Excel sigmoidal curve fitting.

As to `CC(C)(NC(=O)c1cc2[nH]nc(NC(=O)c3ccccc3NC(=O)c3ccc[nH]3)c2o1)c1ccccc1` [(1), 3-{2-[(1H-Pyrrole-2-carbonyl)-amino]-benzoylamino}-1H-furo[3,2-c]pyrazole-5-carboxylic acid (1-methyl-1-phenyl-ethyl)-amide], the IC50 on Aurora-2 is 6 nM; in experiment [1] it was 5 nM.

The record behind these values is patent publication US8119641B2, “1H-furo[3,2-C]pyrazole compounds useful as kinase inhibitors” (Nerviano Medical Sciences S.R.L., priority 2006, dated 2012).
